Reference: publication PMC6257670 (2010)

Tested on: biotinylated m012 (RNA, aptamer) GGCGAAUUCUUCCGUUAUUGGAGCCAAGUCGCC
Assay: competitive ELAA, absorbance 405 nm
Conditions: 150 mM NaCl, 5 mM MgCl2; 50 mM HEPES pH 7.4 (wash), 25 °C; biotinylated SPC (6 µM) displaced; immobilised aptamer

`CCCCCCCCCCCCC/C=C/[C@@H](O)[C@@H](N)COP(=O)([O-])OCC[N+](C)(C)C` was tested, and the binding was “yes”.
